Measurements: US20170037028A1 (BAYER PHARMA AKTIENGESELLSCHAFT, priority 2013, published 2017)
Where two headings read alike, the source gives them in different places.

Molecular target: T1, GLUT1 (Homo sapiens, UniProt P11166)
T1 sequence (P11166 1-492): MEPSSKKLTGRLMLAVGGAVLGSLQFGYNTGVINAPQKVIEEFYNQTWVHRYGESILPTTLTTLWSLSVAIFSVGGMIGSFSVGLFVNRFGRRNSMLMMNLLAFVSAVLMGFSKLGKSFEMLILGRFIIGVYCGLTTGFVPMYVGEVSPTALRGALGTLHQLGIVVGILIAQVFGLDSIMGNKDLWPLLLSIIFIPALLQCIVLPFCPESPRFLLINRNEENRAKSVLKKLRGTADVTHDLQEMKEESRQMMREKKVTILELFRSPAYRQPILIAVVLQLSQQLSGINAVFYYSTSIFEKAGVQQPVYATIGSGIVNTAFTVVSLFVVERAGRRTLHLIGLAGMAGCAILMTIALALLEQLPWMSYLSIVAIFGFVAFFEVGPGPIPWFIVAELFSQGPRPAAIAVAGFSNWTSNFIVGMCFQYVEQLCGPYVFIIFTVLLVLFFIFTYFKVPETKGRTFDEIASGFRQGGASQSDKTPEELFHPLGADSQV
Test: Indirect measurement of GLUT1 activity by quantification of intracellular ATP levels (glucose induced ATP increase)
Type: cell-based
Parameters: endogenous in cells; host or cells: DLD1 or CHO-K1
Conditions: read-out: IC50 regarding glucose induced ATP increase (GLUT1 inhibition)
How it was run: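 Intracellular ATP was measured by CellTiter-Glo luminescence as an indirect readout of transport: glucose-driven for GLUT1, fructose-driven for GLUT2. DLD1 or CHO-K1 cells were used alongside an oxidative phosphorylation inhibitor. Beforehand, cells were held overnight in glucose-free 1% FCS medium to deplete ATP.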

IC50 [nM]	SMILES	IC50 (DLD1 cells, 0.1 mM glucose, 1 μM Rotenone, 15 min, CellTiter-Glo ATP readout, IC50 values standardized to cytochalasin B IC50 values) [nM]
13.9	COCCN(CCC#N)C(=O)c1ccc(Cn2nc(C)c(NC(=O)c3cc(C(F)(F)F)nc4ccc(Br)cc34)c2C)cc1 [Example 1054]	
14.4	Cc1nn(Cc2ccc(C(=O)Nc3cc[nH]n3)cc2)c(C)c1NC(=O)c1cc(C(F)(F)F)nc2ccc(Br)cc12 [Example 1055]	
15	Cc1c(NC(=O)c2cc(C(F)(F)F)nc3ccc(Br)cc23)c(C(F)(F)F)nn1Cc1ccc(C#N)nc1 [Example 1056]	
15.3	Cc1nn(Cc2ccc(C(=O)NCC3CCCO3)cc2)c(C)c1NC(=O)c1cc(C(F)(F)F)nc2ccc(Br)cc12 (stereo not shown) [Example 1058]	
15.6	Cc1nn(Cc2ccc(C(=O)NCC(F)(F)F)cc2)c(C)c1NC(=O)c1cc(C(F)(F)F)nc2ccc(Br)cc12 [Example 1059]	
15.8	Cc1nn(Cc2ccc(C(=O)NCc3ccc(-c4nnn[nH]4)cc3)cc2)c(C)c1NC(=O)c1cc(C(F)(F)F)nc2ccc(Br)cc12 [Example 1060]	
16.4	Cc1nn(Cc2ccc(C(=O)N[C@H]3CC[C@@H](O)CC3)cc2)c(C)c1NC(=O)c1cc(C(F)(F)F)nc2ccc(Br)cc12 [Example 1062]	
16.8	COc1ccc(CCNC(=O)c2ccc(Cn3nc(C)c(NC(=O)c4cc(C(F)(F)F)nc5ccc(Br)cc45)c3C)cc2)cc1 [Example 1063]	
18.6	Cc1nn(Cc2ccc(C(=O)Nc3ccccn3)cc2)c(C)c1NC(=O)c1cc(C(F)(F)F)nc2ccc(Br)cc12 [Example 1064]	
18.7	Cc1c(NC(=O)c2cc(C(F)(F)F)nc3ccc(Br)cc23)c(C(F)(F)F)nn1Cc1ccc(C(=O)NCCO)cn1 [Example 1065]	
19.1	Cc1nn(Cc2ccc(C(=O)Nc3cccc(Cl)c3)cc2)c(C)c1NC(=O)c1cc(C(F)(F)F)nc2ccc(Br)cc12 [Example 1066]	
19.2	Cc1nn(Cc2ccc(C(=O)NCCC(N)=O)cc2)c(C)c1NC(=O)c1cc(C(F)(F)F)nc2ccc(Br)cc12 [Example 1067]	
19.5	Cc1nn(Cc2ccc(C(=O)NCc3ccccn3)cc2)c(C)c1NC(=O)c1cc(C(F)(F)F)nc2ccc(Br)cc12 [Example 1068]	
19.8	Cc1nn(Cc2ccc(C(=O)Nc3ccc(N(C)C)cc3)cc2)c(C)c1NC(=O)c1cc(C(F)(F)F)nc2ccc(Br)cc12 [Example 1069]	
20.2	CNC(=O)c1ccc(Cn2nc(C)c(NC(=O)c3cc(C(F)(F)F)nc4ccc(Br)cc34)c2C)nc1 [Example 1070]	
21	Cc1nn(Cc2ccccc2O)c(C)c1NC(=O)c1cc(C(F)(F)F)nc2c(Cl)cc(Cl)cc12 [Example 1071]	
21	Cc1nn(CC2CCN(S(C)(=O)=O)CC2)c(C)c1NC(=O)c1cc(C(F)(F)F)nc2ccc(Br)cc12 [Example 1072]	
21.7	Cc1nn(Cc2ccc(C(=O)NCC3CC3)cn2)c(C)c1NC(=O)c1cc(C(F)(F)F)nc2ccc(Br)cc12 [Example 1073]	
22.3	Cc1nn(Cc2ccncc2C#N)c(C)c1NC(=O)c1cc(C(F)(F)F)nc2ccc(Br)cc12 [Example 1074]	
22.5	COc1cc(C(=O)Nc2c(C(F)(F)F)nn(Cc3ccc(C#N)cc3)c2C)c2ccccc2n1 [Example 1075]	
22.7	Cc1c(NC(=O)c2cc(C(F)(F)F)nc3ccc(Br)cc23)c(C(F)(F)F)nn1Cc1ccc(C(N)=O)cn1 [Example 1076]	
23.1	Cc1nn(Cc2ccc(C(=O)NCCCCCO)cc2)c(C)c1NC(=O)c1cc(C(F)(F)F)nc2ccc(Br)cc12 [Example 1077]	
23.9	CNC(=O)c1ccc(Cn2nc(C(F)(F)F)c(NC(=O)c3cc(C(F)(F)F)nc4ccc(Br)cc34)c2C)nc1 [Example 1078]	
24.4	Cc1nn(Cc2ccc(C(=O)NCC3CC3)cc2)c(C)c1NC(=O)c1cc(C(F)(F)F)nc2ccc(Br)cc12 [Example 1079]	
25.8	Cc1nn(Cc2ccc(C(=O)NCC(F)F)cc2)c(C)c1NC(=O)c1cc(C(F)(F)F)nc2ccc(Br)cc12 [Example 1080]	
26.3	Cc1nn(Cc2ccc(C(=O)N3CCC[C@@H]3CO)cc2)c(C)c1NC(=O)c1cc(C(F)(F)F)nc2ccc(Br)cc12 [Example 1081]	
28.2	Cc1nn(Cc2ncccc2C#N)c(C)c1NC(=O)c1cc(C(N)=O)nc2ccccc12 [Example 1082]	
29.4	Cc1nn(Cc2ccc(C(=O)NCCCCO)cc2)c(C)c1NC(=O)c1cc(C(F)(F)F)nc2ccc(Br)cc12 [Example 1083]	
30.8	Cc1nn(Cc2ccc(C(=O)NCCOc3ccccc3F)cc2)c(C)c1NC(=O)c1cc(C(F)(F)F)nc2ccc(Br)cc12 [Example 1084]	

More lines, now with the values behind:

SMILES	IC50 [nM]	IC50 (DLD1 cells, 0.1 mM glucose, 1 μM Rotenone, 15 min, CellTiter-Glo ATP readout, IC50 values standardized to cytochalasin B IC50 values) [nM]
Cc1c(NC(=O)c2cc(C(N)=O)nc3cc(F)ccc23)c(C(F)(F)F)nn1Cc1ccc(C#N)nn1 [Example 427, N^4-{1-[(6-cyanopyridazin-3-yl)methyl]-5-methyl-3-(trifluoromethyl)-1H-pyrazol-4-yl}-7-fluoroquinoline-2,4-dicarboxamide]		78.3
C=CCNC(=O)c1ccc(Cn2nc(C)c(NC(=O)c3cc(C(F)(F)F)nc4ccc(Br)cc34)c2C)cc1 [Example 1018]	1.9	
Cc1nn(Cc2ccc(C(=O)NC[C@@H](C)O)cc2)c(C)c1NC(=O)c1cc(C(F)(F)F)nc2ccc(Br)cc12 [Example 1019]	1.9	
CCCNC(=O)c1ccc(Cn2nc(C)c(NC(=O)c3cc(C(F)(F)F)nc4ccc(Br)cc34)c2C)cc1 [Example 1020]	1.9	
Cc1nn(Cc2ccc(C(=O)NCc3ccncc3)cc2)c(C)c1NC(=O)c1cc(C(F)(F)F)nc2ccc(Br)cc12 [Example 1021]	2.3	
Cc1nn(Cc2ccc(C(=O)NCC#N)cc2)c(C)c1NC(=O)c1cc(C(F)(F)F)nc2ccc(Br)cc12 [Example 1022]	2.4	
Cc1nn(Cc2ccc(C(=O)NC3CC3)cc2)c(C)c1NC(=O)c1cc(C(F)(F)F)nc2ccc(Br)cc12 [Example 1024]	2.7	
COc1ccc(Cn2nc(C)c(NC(=O)c3cc(C(F)(F)F)nc4ccc(Br)cc34)c2C)cn1 [Example 1025]	2.8	
COc1ccc(Cn2nc(C(F)(F)F)c(NC(=O)c3cc(C(F)(F)F)nc4ccc(Br)cc34)c2C)cn1 [Example 1027]	3	
CCNC(=O)c1ccc(Cn2nc(C)c(NC(=O)c3cc(C(F)(F)F)nc4ccc(Br)cc34)c2C)cc1 [Example 1028]	3	
Cc1nn(Cc2ccc(C(=O)NCCF)cc2)c(C)c1NC(=O)c1cc(C(F)(F)F)nc2ccc(Br)cc12 [Example 1030]	3.2	
Cc1nn(Cc2ccc(C(=O)N3CCCC3)cc2)c(C)c1NC(=O)c1cc(C(F)(F)F)nc2ccc(Br)cc12 [Example 1033]	4.2	
COc1ccc(Cn2nc(C(F)(F)F)c(NC(=O)c3cc(C(F)(F)F)nc4ccc(Br)cc34)c2C)cc1 [Example 1035]	5	
CNC(=O)c1c(NC(=O)c2cc(C(F)(F)F)nc3ccc(Br)cc23)c(C)nn1Cc1ccc(F)cc1 [Example 1036]	5.1	
Cc1nn(Cc2ccc(C(=O)N3CCC3)cc2)c(C)c1NC(=O)c1cc(C(F)(F)F)nc2ccc(Br)cc12 [Example 1037]	5.3	
Cc1nn(Cc2ccc(C(=O)Nc3ccccc3C(N)=O)cc2)c(C)c1NC(=O)c1cc(C(F)(F)F)nc2ccc(Br)cc12 [Example 1038]	5.7	
COc1ccc(Cn2nc(C)c(NC(=O)c3cc(C(F)(F)F)nc4ccc(Br)cc34)c2C)cc1F [Example 1039]	5.7	
Cc1nn(Cc2ccc(C(=O)Nc3ccccc3Cl)cc2)c(C)c1NC(=O)c1cc(C(F)(F)F)nc2ccc(Br)cc12 [Example 1040]	6.7	
Cc1nn(Cc2ccc(C(=O)Nc3ccccc3)cn2)c(C)c1NC(=O)c1cc(C(F)(F)F)nc2ccc(Br)cc12 [Example 1041]	8.6	
CNC(=O)N(C)CCNC(=O)c1ccc(Cn2nc(C)c(NC(=O)c3cc(C(F)(F)F)nc4ccc(Br)cc34)c2C)cc1 [Example 1043]	8.8	
Cc1nn(Cc2ccc(C(=O)NCCCC(=O)N(C)C)cc2)c(C)c1NC(=O)c1cc(C(F)(F)F)nc2ccc(Br)cc12 [Example 1044]	8.8	
Cc1nn(Cc2ccc(C(=O)Nc3cccnc3)cc2)c(C)c1NC(=O)c1cc(C(F)(F)F)nc2ccc(Br)cc12 [Example 1045]	9.4	
Cc1nn(Cc2ccc(C(=O)NC[C@H](C)O)cc2)c(C)c1NC(=O)c1cc(C(F)(F)F)nc2ccc(Br)cc12 [Example 1046]	9.6	
Cc1nn(Cc2ccc(C(=O)Nc3nccs3)cc2)c(C)c1NC(=O)c1cc(C(F)(F)F)nc2ccc(Br)cc12 [Example 1047]	11.2	
Cc1nn(Cc2ccc(O)cc2)c(C)c1NC(=O)c1cc(C(F)(F)F)nc2c(Cl)cc(Cl)cc12 [Example 1048]	11.5	
Cc1nn(Cc2ccc(C(=O)NCCN3CC4(CCS4(=O)=O)C3)cc2)c(C)c1NC(=O)c1cc(C(F)(F)F)nc2ccc(Br)cc12 [Example 1049]	11.7	
Cc1nn(Cc2ccc(C(=O)NCCCO)cc2)c(C)c1NC(=O)c1cc(C(F)(F)F)nc2ccc(Br)cc12 [Example 1051]	11.8	
COc1cc(C(=O)Nc2c(C)nn(Cc3ccc(S(C)(=O)=O)cc3)c2C)c2ccccc2n1 [Example 1052]	13.1	
Cc1nn(Cc2ccc(C(=O)N[C@H]3CC[C@H](O)CC3)cc2)c(C)c1NC(=O)c1cc(C(F)(F)F)nc2ccc(Br)cc12 [Example 1053]	13.7	
